Measured values from US6090787A, “Antithrombotic agents” (Eli Lilly and Company, priority 1999, dated 2000).
One block for each compound: values may come before it.

Assays:
[1] = biological target: T1, tissue plasminogen activator (t-PA) (Homo sapiens, UniProt P00750); assay: Fibrinolytic protease selectivity, Kass, t-PA chromogenic assay; assay type: biochemical; conditions: apparent association constant
T1 construct: purchased American Diagnostica, Greenwich, Conn
Description: (§1) By substantially following the procedures described above for human thrombin, and using other human blood coagulation system serine proteases and proteases of the fibrinolytic system with the appropriate chromogenic substrates, identified below, selectivity of the compounds of the present invention with respect to the coagulation factor serine proteases and with respect to the fibrinolytic system serine proteases are evaluated as well as their substantial lack of interference with serine proteases of the fibrinolytic system. Thrombin inhibitors preferably should spare fibrinolysis induced by urokinase, tissue plasminogen activator (t-PA) and streptokinase. This would be important to the therapeutic use of such agents as an adjunct to streptokinase, t-PA or urokinase thrombolytic therapy and to the use of such agents as an endogenous fibrinolysis-sparing (with respect to t-PA and urokinase) antithrombotic agent. In addition to the lack of interference with the amidase activity of the fibrinolytic proteases, such fibrinolytic system sparing can be studied by the use of human plasma clots and their lysis by the respective fibrinolytic plasminogen activators.
(§2) Human plasmin is purchased from Boehringer Mannheim, Indianapolis, Indiana; nt-PA is purchased as single chain activity reference from American Diagnostica, Greenwich, Conn.; modified-t-PA6 (mt-PA6) is prepared at Eli Lilly and Company by procedure known in the art (See, Burck, et al., J. Biol. Chem., 265, […] (1990). Plasmin chromogenic substrate H--D--Val--Leu--Lys--p--nitroanilide and tissue plasminogen activator (t-PA) substrate H--D--Ile--Pro--Arg--p--nitroanilide are purchased from Kabi Vitrum, Stockholm, Sweden.

Human plasmin = biological target: T2, Human plasmin (Homo sapiens, UniProt P00747); assay: Fibrinolytic protease selectivity, Kass, plasmin chromogenic assay; assay type: biochemical; conditions: apparent association constant
T2 construct: Human plasmin is purchased from Boehringer Mannheim; purchased Boehringer Mannheim, Indianapolis, Indiana
T2 sequence (P00747 581-810 limits assumed): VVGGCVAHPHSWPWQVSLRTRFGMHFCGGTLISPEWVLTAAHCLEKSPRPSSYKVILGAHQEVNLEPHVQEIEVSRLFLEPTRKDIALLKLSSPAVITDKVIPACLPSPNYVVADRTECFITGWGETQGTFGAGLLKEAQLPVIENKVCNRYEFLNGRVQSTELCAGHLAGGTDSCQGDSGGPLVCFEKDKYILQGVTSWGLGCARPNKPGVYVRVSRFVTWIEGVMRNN
T2 sequence (P00747 97-580 partner limits assumed): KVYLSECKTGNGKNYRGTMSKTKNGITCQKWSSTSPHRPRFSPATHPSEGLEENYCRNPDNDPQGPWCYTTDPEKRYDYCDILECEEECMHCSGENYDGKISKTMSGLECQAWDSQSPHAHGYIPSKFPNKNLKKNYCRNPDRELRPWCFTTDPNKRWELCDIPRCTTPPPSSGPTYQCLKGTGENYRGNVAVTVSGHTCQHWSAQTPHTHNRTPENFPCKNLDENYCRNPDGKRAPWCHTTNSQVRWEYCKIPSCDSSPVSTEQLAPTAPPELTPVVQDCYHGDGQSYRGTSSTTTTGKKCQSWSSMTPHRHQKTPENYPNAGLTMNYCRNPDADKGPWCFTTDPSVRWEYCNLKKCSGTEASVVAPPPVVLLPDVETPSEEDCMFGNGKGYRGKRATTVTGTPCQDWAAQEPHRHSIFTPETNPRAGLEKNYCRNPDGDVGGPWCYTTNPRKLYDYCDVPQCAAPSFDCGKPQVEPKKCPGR
Description: as §1, §2

human plasma [2] = assay: Human plasma anticoagulation, prothrombin time (PT); conditions: concentration required to double the PT, linear extrapolation
Description: (§3) Dog plasma and rat plasma is obtained from conscious mixed-breed hounds (either sex, Hazelton-LRE, Kalamazoo, Mich., U.S.A.) or from anesthetized male Sprague-Dawley rats (Harlan Sprague-Dawley, Inc., Indianapolis, Ind., U.S.A.) by venipuncture into 3.8 percent citrate. Fibrinogen is prepared from in-date ACD human blood as the fraction I-2 according to previous procedures and specifications. Smith, Biochem. J., 185, 1-11 (1980); and Smith, et al., Biochemistry, 11, 2958-2967 (1972). Human fibrinogen is also purchased as 98 percent pure/plasmin free from American Diagnostica, Greenwich, Conn. Coagulation reagents ACTIN, Thromboplastin, and Human plasma are from Baxter Healthcare Corp., Dade Division, Miami, Fla. Bovine thrombin from Parke-Davis ([…], Mich.) is used for coagulation assays in plasma.
(§4) Coagulation assay procedures are as previously described. Smith, et al., Thrombosis Research, 50, 163-174 (1988). A CoAScreener coagulation instrument (American LABor, Inc.) is used for all coagulation assay measurements. The prothrombin time (PT) is measured by adding 0.05 mL saline and 0.05 mL Thromboplastin-C reagent to 0.05 mL test plasma. The activated partial thromboplastin time (APTT) is measured by incubation of 0.05 mL test plasma with 0.05 mL Actin reagent for 120 seconds followed by 0.05 mL CaCl2 (0.02 M). The thrombin time (TT) is measured by adding 0.05 mL saline and 0.05 mL thrombin (10 NIH units/mL) to 0.05 mL test plasma. The compounds of formula I are added to human or animal plasma over a wide range of concentrations to determine prolongation effects on the APTT, PT, and TT assays. Linear extrapolations are performed to estimate the concentrations required to double the clotting time for each assay.

factor Xa = biological target: T3, factor Xa (Homo sapiens, UniProt P00742); assay: Serine protease selectivity, Kass, factor Xa chromogenic assay; assay type: biochemical; conditions: apparent association constant
T3 construct: Human factors X, Xa, IXa, XIa, and XIIa are purchased from Enzyme Research Laboratories; purchased Enzyme Research Laboratories, South Bend, Ind
T3 sequence (P00742 235-488 limits assumed): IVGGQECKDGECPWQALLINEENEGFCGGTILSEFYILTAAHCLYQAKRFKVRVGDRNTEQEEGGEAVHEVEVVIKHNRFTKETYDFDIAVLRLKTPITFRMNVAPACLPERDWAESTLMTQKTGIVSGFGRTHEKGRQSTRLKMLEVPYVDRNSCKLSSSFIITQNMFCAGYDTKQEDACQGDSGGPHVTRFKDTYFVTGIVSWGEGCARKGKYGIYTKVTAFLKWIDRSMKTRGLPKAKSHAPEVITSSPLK
T3 sequence (P00742 41-179 partner limits assumed): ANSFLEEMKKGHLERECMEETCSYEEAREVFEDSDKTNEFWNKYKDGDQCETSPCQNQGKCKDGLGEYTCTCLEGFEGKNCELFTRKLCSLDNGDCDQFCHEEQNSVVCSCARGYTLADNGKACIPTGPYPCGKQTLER
Description: as §1
(§5) Human factors X, Xa, IXa, XIa, and XIIa are purchased from Enzyme Research Laboratories, South Bend, Ind.; human urokinase from Leo Pharmaceuticals, Denmark; and recombinant activated Protein C (aPC) is prepared at Eli Lilly and Co. substantially according to U.S. Pat. No. 4,981,952 incorporated by reference herein in its entirety. Chromogenic substrates: N--Benzoyl--Ile--Glu--Gly--Arg--p--nitroanilide (for factor Xa); N--Cbz--D--Arg--Gly--Arg--p--nitroanilide (for factor IXa assay as the factor Xa substrate); Pyroglutamyl--Pro--Arg--p--nitroanilide (for Factor XIa and for aPC); H--D--Pro--Phe--Arg--p--nitroanilide (for factor XIIa); and Pyroglutamyl--Gly--Arg--p--nitroanilide (for urokinase); are purchased from KabiVitrum, Stockholm, Sweden, or from Midwest Biotech, Fishers, Indiana. Bovine trypsin is purchased from Worthington Biochemicals, Freehold, N.J., and human plasma kallikrein from Kabi Vitrum, Stockholm, Sweden. Chromogenic substrate H--D--Pro--Phe--Arg--p--nitroanilide for plasma kallikrein is purchased from Kabi Vitrum, Stockholm, Sweden. N--Benzoyl--Phe--Val--Arg--p--nitroanilide, the substrate for human thrombin and for trypsin, is synthesized according to procedures described above for the compounds of the present invention, using known methods of peptide coupling from commercially available reactants or purchased from Midwest Biotech, Fishers, Ind.

human plasma [3] = assay: Human plasma anticoagulation, activated partial thromboplastin time (APTT); conditions: concentration required to double the APTT, linear extrapolation
Description: as §3, §4

human thrombin = biological target: T4, human thrombin (Homo sapiens, UniProt P00734); assay: Inhibition of amidase activity of thrombin (Kass), chromogenic substrate; assay type: biochemical; conditions: apparent association constant, mean over a range of concentrations
T4 construct: purified human thrombin, Enzyme Research Laboratories; purchased Enzyme Research Laboratories, South Bend, Indiana
Description: The assay is carried out by mixing 50 μL buffer (0.03 M Tris, 0.15 M NaCl, pH 7.4) with 25 μL of bovine thrombin or human thrombin solution (0.21 mg/mL of thrombostat bovine thrombin, Parke-Davis, or purified human thrombin, Enzyme Research Laboratories, South Bend, Indiana, at about 8 NIH units/mL, in the same buffer) and 25 μL of test compound in a solvent (in 50% aqueous methanol, v:v). The 150 μL of an aqueous solution of the chromogenic substrate (at 0.25 mg/mL) are added and the rates of hydrolysis of the substrate are measured by monitoring the reactions at 405 nm for the release of p-nitroaniline. Standard curves are constructed by plotting free thrombin concentration against hydrolysis rate. The hydrolysis rates observed with test compounds are then converted to "free thrombin" values in the respective assays by use of the standard curves. The bound thrombin (bound to test compound) is calculated by subtracting the amount of free thrombin observed in each assay from the known initial amount of thrombin used in the assay. The amount of free inhibitor in each assay is calculated by subtracting the number of moles of bound thrombin from the number of moles of added inhibitor (test compound).
The Kass value is the hypothetical equilibrium constant for the reaction between thrombin and the test compound (I). [formula]
Kass is calculated for a range of concentrations of test compounds and the mean value is reported in units of liter per mole.

Bovine trypsin = biological target: T5, Bovine trypsin (Bos taurus, UniProt P00760); assay: Serine protease selectivity, Kass, trypsin chromogenic assay; assay type: biochemical; conditions: apparent association constant
T5 construct: purchased Worthington Biochemicals, Freehold, N.J
T5 sequence (P00760 24-246): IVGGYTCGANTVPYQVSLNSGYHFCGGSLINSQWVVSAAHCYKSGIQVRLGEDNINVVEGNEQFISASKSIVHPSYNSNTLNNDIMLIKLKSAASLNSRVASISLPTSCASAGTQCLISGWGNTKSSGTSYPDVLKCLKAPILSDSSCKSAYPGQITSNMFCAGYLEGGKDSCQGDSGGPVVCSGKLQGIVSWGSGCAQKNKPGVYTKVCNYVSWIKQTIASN
Description: as §1, §5

human plasma [4] = assay: Human plasma anticoagulation, thrombin time (TT); conditions: concentration required to double the thrombin time, linear extrapolation
Description: as §3, §4

T1 sequence (P00750 36-562): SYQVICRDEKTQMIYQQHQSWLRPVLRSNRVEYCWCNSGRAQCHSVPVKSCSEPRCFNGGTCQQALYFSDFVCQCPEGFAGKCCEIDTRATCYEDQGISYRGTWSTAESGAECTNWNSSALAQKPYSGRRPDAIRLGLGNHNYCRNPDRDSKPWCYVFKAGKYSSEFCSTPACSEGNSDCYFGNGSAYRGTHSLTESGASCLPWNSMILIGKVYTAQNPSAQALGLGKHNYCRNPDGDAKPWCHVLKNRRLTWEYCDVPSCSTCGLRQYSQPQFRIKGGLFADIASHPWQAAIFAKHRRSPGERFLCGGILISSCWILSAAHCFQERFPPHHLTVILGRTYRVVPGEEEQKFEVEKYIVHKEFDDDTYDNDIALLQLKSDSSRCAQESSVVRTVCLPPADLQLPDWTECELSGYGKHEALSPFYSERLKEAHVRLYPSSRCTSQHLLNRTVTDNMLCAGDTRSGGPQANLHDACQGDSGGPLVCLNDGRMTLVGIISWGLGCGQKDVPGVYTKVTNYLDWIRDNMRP

Compound: Cl.Cl.N=C(N)NCCC[C@@H](C=O)NC(=O)CN(CCCC(=O)O)C(=O)[C@H]1CCCCN1 [Example 14, D--hPro--N(CH2 CH2 CH2 COOH)Gly--ArgH.2HCl]
Enzyme Kass t-PA [1]: 0.001 L/mol × 10^6
Enzyme Kass Plasmin (Human plasmin): 0.016 L/mol × 10^6
Human Plasma Anticoagulation 2 × Clotting time PT (human plasma [2]): 30,000 ng/mL
Enzyme Kass Xa (factor Xa): 0.062 L/mol × 10^6
Human Plasma Anticoagulation 2 × Clotting time APTT (human plasma [3]): 20,000 ng/mL
Enzyme Kass Human Thrombin (human thrombin): 1.2 L/mol × 10^6
Enzyme Kass Trypsin (Bovine trypsin): 0.60 L/mol × 10^6
Human Plasma Anticoagulation 2 × Clotting time TT (human plasma [4]): 700 ng/mL

Compound: Cl.Cl.N=C(N)NCCC[C@@H](C=O)NC(=O)CN(CCCCC(=O)O)C(=O)[C@H]1CCCCN1 [Example 15, D--hPro--N(CH2 CH2 CH2 CH2 COOH)Gly--ArgH.2HCl]
Enzyme Kass t-PA [1]: 0.001 L/mol × 10^6
Enzyme Kass Plasmin (Human plasmin): 0.020 L/mol × 10^6
Human Plasma Anticoagulation 2 × Clotting time PT (human plasma [2]): 21,000 ng/mL
Enzyme Kass Xa (factor Xa): 0.078 L/mol × 10^6
Human Plasma Anticoagulation 2 × Clotting time APTT (human plasma [3]): 15,000 ng/mL
Enzyme Kass Human Thrombin (human thrombin): 1.8 L/mol × 10^6
Enzyme Kass Trypsin (Bovine trypsin): 0.99 L/mol × 10^6
Human Plasma Anticoagulation 2 × Clotting time TT (human plasma [4]): 670 ng/mL

Compound: CCS(=O)(=O)N[C@H](Cc1ccccc1)C(=O)N(C)CC(=O)N[C@H](C=O)CCCNC(=N)N.Cl.Cl [Example 16, N-(ethylsulfonyl)-D-phenylalanyl-N-methylglycyl-L-argininal dihydrochloride]
Enzyme Kass t-PA [1]: 1.2 L/mol × 10^6
Enzyme Kass Plasmin (Human plasmin): 1.5 L/mol × 10^6
Human Plasma Anticoagulation 2 × Clotting time PT (human plasma [2]): 1,600 ng/mL
Enzyme Kass Xa (factor Xa): 3.3 L/mol × 10^6
Human Plasma Anticoagulation 2 × Clotting time APTT (human plasma [3]): 1,200 ng/mL
Enzyme Kass Human Thrombin (human thrombin): 37 L/mol × 10^6
Enzyme Kass Trypsin (Bovine trypsin): 22 L/mol × 10^6
Human Plasma Anticoagulation 2 × Clotting time TT (human plasma [4]): 30 ng/mL

Compound: CNCC(=O)N(CCc1ccccc1)CC(=O)N[C@H](C=O)CCCNC(=N)N.Cl.Cl [Example 17, Sar--N(CH2 CH2 Ph)Gly--ArgH.2HCl]
Enzyme Kass t-PA [1]: 0.001 L/mol × 10^6
Enzyme Kass Plasmin (Human plasmin): 0.20 L/mol × 10^6
Human Plasma Anticoagulation 2 × Clotting time PT (human plasma [2]): 2,700 ng/mL
Enzyme Kass Xa (factor Xa): 2.2 L/mol × 10^6
Human Plasma Anticoagulation 2 × Clotting time APTT (human plasma [3]): 2,200 ng/mL
Enzyme Kass Human Thrombin (human thrombin): 2.9 L/mol × 10^6
Enzyme Kass Trypsin (Bovine trypsin): 0.38 L/mol × 10^6
Human Plasma Anticoagulation 2 × Clotting time TT (human plasma [4]): 150 ng/mL

The next lines start with results.

Enzyme Kass t-PA [1]: 0.0064 L/mol × 10^6
Enzyme Kass Plasmin (Human plasmin): 0.060 L/mol × 10^6
Enzyme Kass Xa (factor Xa): 0.14 L/mol × 10^6
Enzyme Kass Human Thrombin (human thrombin): 3.3 L/mol × 10^6
Enzyme Kass Trypsin (Bovine trypsin): 0.55 L/mol × 10^6
Compound: Cc1ccccc1N(CC(=O)N[C@H](C=O)CCCN=C(N)N)C(=O)[C@H]1CCCCN1.Cl.Cl [Example 12, D--hPro--N(o--Me--Ph)Gly--ArgH.2HCl]
Human Plasma Anticoagulation 2 × Clotting time PT (human plasma [2]): 8,200 ng/mL
Human Plasma Anticoagulation 2 × Clotting time APTT (human plasma [3]): 4,900 ng/mL
Human Plasma Anticoagulation 2 × Clotting time TT (human plasma [4]): 370 ng/mL

Enzyme Kass t-PA [1]: 0.001 L/mol × 10^6
Enzyme Kass Plasmin (Human plasmin): 0.015 L/mol × 10^6
Enzyme Kass Xa (factor Xa): 0.051 L/mol × 10^6
Enzyme Kass Human Thrombin (human thrombin): 0.83 L/mol × 10^6
Enzyme Kass Trypsin (Bovine trypsin): 0.48 L/mol × 10^6
Compound: Cl.Cl.N=C(N)NCCC[C@@H](C=O)NC(=O)CN(CCC(=O)O)C(=O)[C@H]1CCCCN1 [Example 13, D--hPro--N(CH2 CH2 COOH)Gly--ArgH.2HCl]
Human Plasma Anticoagulation 2 × Clotting time PT (human plasma [2]): 27,000 ng/mL
Human Plasma Anticoagulation 2 × Clotting time APTT (human plasma [3]): 21,000 ng/mL
Human Plasma Anticoagulation 2 × Clotting time TT (human plasma [4]): 800 ng/mL

Enzyme Kass t-PA [1]: 0.001 L/mol × 10^6
Enzyme Kass Plasmin (Human plasmin): 0.34 L/mol × 10^6
Enzyme Kass Xa (factor Xa): 0.47 L/mol × 10^6
Enzyme Kass Human Thrombin (human thrombin): 5.1 L/mol × 10^6
Enzyme Kass Trypsin (Bovine trypsin): 1.1 L/mol × 10^6
Compound: Cl.Cl.NC(N)=NCCC[C@@H](C=O)NC(=O)CN(CCc1ccccc1)C(=O)[C@H]1CCCN1 [Example 18, D--Pro--N(CH2 CH2 Ph)Gly--ArgH.2HCl]
Human Plasma Anticoagulation 2 × Clotting time PT (human plasma [2]): 3,900 ng/mL
Human Plasma Anticoagulation 2 × Clotting time APTT (human plasma [3]): 3,300 ng/mL
Human Plasma Anticoagulation 2 × Clotting time TT (human plasma [4]): 170 ng/mL

Enzyme Kass t-PA [1]: < 0.001 L/mol × 10^6
Enzyme Kass Plasmin (Human plasmin): 0.22 L/mol × 10^6
Enzyme Kass Xa (factor Xa): 0.11 L/mol × 10^6
Enzyme Kass Human Thrombin (human thrombin): 0.64 L/mol × 10^6
Enzyme Kass Trypsin (Bovine trypsin): 0.22 L/mol × 10^6
Compound: Cl.Cl.N=C(N)NCCC[C@@H](C=O)NC(=O)CN(CCc1ccccc1)C(=O)[C@@H]1CCCN1 [Example 19, L--Pro--N(CH2 CH2 Ph)Gly--ArgH.2HCl]
Human Plasma Anticoagulation 2 × Clotting time PT (human plasma [2]): 10,000 ng/mL
Human Plasma Anticoagulation 2 × Clotting time APTT (human plasma [3]): 10,000 ng/mL
Human Plasma Anticoagulation 2 × Clotting time TT (human plasma [4]): 490 ng/mL
